Reference: paper doi:10.1101/2024.08.21.608984v2 (biorxiv, 2025)
pEC50: −log10 of the molar value.

Experiments:
[1] = molecular target: GluN1/GluN2B NMDAR (Homo sapiens, UniProt Q05586+Q13224, Q05586:Y647S); assay: two-electrode voltage clamp, Xenopus oocytes; assay type: cell-based
[2] = molecular target: GluN1/GluN2A NMDAR (Homo sapiens, UniProt Q05586+Q12879, Q05586:Y647S); assay: two-electrode voltage clamp, Xenopus oocytes; assay type: cell-based
Chain of GluN1/GluN2A NMDAR (Q12879 23-1464, other chains not shown): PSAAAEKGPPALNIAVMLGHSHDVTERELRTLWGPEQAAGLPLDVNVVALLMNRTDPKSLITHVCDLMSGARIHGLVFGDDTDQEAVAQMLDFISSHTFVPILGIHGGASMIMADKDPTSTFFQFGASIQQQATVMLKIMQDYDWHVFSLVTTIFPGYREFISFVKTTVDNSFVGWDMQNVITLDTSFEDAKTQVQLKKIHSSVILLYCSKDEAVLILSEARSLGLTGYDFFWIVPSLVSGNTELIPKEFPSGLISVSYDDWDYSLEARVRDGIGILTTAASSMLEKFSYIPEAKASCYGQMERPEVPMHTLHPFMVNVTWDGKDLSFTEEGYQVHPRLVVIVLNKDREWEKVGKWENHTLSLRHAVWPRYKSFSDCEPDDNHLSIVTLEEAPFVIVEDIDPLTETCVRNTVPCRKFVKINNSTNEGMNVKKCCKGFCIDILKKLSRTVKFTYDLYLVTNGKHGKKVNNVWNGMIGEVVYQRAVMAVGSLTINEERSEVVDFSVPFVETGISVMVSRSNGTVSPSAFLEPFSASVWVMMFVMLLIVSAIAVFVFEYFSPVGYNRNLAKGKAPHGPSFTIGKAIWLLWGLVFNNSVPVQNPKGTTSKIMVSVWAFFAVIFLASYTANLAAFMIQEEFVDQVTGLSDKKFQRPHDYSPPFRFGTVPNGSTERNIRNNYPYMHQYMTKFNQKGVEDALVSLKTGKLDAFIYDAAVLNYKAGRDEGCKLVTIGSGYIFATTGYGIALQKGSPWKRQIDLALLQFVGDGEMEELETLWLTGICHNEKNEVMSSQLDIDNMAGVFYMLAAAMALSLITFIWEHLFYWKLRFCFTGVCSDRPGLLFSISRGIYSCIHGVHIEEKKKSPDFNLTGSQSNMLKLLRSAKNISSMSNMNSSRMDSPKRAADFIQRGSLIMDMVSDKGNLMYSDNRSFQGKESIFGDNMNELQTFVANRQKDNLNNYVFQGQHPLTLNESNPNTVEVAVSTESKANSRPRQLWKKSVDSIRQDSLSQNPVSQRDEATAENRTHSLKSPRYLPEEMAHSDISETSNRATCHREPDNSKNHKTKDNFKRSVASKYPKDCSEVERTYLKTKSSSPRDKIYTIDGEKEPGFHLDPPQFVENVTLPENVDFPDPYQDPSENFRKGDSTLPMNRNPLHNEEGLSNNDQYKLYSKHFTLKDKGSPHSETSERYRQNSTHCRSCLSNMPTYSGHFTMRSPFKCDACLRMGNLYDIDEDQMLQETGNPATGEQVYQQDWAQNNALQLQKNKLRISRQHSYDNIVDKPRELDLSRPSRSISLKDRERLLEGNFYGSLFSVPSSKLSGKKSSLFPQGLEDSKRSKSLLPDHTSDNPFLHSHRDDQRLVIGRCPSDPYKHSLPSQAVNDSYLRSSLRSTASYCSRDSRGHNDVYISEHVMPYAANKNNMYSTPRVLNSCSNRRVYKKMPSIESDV

Chain of GluN1/GluN2B NMDAR (Q13224 27-1484, other chains not shown): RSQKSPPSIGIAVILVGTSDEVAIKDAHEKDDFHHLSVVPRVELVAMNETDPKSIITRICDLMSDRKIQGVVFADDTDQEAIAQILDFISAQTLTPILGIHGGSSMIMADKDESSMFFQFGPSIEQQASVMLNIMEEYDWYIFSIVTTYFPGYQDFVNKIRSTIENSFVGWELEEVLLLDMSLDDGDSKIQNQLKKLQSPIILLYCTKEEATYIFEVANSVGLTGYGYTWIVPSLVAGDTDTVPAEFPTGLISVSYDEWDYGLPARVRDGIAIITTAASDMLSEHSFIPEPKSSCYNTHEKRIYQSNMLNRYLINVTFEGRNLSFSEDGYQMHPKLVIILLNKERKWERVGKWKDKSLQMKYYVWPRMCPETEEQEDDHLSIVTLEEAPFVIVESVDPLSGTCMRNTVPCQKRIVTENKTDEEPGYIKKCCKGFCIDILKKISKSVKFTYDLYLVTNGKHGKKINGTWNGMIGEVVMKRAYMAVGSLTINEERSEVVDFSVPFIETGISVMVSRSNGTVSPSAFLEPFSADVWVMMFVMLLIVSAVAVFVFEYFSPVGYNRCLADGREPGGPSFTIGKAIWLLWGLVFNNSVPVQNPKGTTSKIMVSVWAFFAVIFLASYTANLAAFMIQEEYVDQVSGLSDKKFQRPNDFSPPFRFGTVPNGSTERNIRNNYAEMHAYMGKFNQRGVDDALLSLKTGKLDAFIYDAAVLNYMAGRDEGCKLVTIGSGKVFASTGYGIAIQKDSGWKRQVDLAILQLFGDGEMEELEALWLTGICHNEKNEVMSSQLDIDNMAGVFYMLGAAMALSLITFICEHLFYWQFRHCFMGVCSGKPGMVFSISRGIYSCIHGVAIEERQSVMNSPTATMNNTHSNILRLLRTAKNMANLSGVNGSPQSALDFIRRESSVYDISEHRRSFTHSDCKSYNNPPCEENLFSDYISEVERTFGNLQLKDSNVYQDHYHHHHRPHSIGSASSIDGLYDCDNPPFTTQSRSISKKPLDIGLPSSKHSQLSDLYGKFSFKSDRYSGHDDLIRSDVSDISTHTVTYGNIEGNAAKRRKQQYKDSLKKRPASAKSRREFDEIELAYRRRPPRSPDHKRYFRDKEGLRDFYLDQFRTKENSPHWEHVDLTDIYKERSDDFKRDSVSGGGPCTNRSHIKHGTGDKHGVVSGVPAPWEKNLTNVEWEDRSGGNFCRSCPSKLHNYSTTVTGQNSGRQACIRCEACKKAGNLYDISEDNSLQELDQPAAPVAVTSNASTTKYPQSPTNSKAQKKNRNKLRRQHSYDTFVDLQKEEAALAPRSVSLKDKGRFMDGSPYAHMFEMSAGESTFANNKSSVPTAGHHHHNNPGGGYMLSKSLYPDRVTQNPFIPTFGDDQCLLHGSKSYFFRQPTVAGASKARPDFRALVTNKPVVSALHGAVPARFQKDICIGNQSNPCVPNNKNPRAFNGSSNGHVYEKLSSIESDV

NCC(=O)O [glycine]
pEC50 [1]: 7.77
pEC50 [2]: 7.44
